# From patent US20230067378A1, “COMPOSITIONS AND METHODS FOR THE TREATMENT OF ESTROGEN-DEPENDENT DISORDERS” (ObsEva S.A., priority 2018, published 2023)
# Tests used:
# [1] = test system: progesterone; experiment: circulating progesterone concentration, same clinical trial; format: in vivo, human; conditions: both cohorts (Concurrent-ABT and Delayed-ABT), exception of a single outlier subject, FIG. 3B
# Procedure: The experiments described in this example were conducted as part of a single-center, open-label, randomized, parallel-group clinical trial in 32 pre-menopausal women. Following screening assessments, and during the second half of the menstrual cycle, women received norethindrone (5 mg, three-times daily for 10 days) to synchronize menstrual cycles. […]
# (§1) The main treatment outcomes and endpoints measured during these experiments included (i) a qualitative assessment of uterine blood loss, which was recorded on a daily basis throughout the study by characterizing each subject's bleeding pattern using one of the following four categories: “no bleeding,” “spotting” (light staining, dark blood, no sanitary protection needed or only panty liner), “bleeding” (1-4 completely soiled maxi sanitary towels or 1-8 soiled tampons or equivalent combination of the two), or “heavy bleeding” (>4 completely soiled maxi sanitary towels or >8 soiled tampons or equivalent combination of the two); (ii) a bi-weekly assessment of each subject's circulating E2 concentration; (iii) a bi-weekly assessment of each subject's circulating progesterone concentration (measured using a validated commercial chemiluminescence immunoassay method (Elecsys Progesterone III, Roche, Burgess Hill, UK)); (iv) the pharmacokinetic profile of compound (VI) and the add-back therapy; and (v) adverse events.
# [2] = biological target: T1, human GnRH receptor (Homo sapiens, UniProt P30968); experiment: affinity for human GnRH receptor; format: binding; conditions: kind of constant not given; also for salts such as the choline salt
# T1 sequence (P30968 1-328): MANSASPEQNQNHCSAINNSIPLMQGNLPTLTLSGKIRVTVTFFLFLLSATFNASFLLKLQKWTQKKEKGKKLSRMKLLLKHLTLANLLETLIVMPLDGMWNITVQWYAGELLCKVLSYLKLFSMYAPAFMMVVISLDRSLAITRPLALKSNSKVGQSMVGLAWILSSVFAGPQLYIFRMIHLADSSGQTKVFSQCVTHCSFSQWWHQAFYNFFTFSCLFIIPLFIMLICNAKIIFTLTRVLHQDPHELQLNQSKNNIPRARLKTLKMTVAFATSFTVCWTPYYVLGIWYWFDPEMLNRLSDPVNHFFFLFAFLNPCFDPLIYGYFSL
# [3] = adverse events, same clinical trial; format: in vivo, human
# Procedure: The experiments described in this example were conducted as part of a single-center, open-label, randomized, parallel-group clinical trial in 32 pre-menopausal women. Following screening assessments, and during the second half of the menstrual cycle, women received norethindrone (5 mg, three-times daily for 10 days) to synchronize menstrual cycles. After menstrual cycle synchronization, subjects were randomized with a 1:1 ratio to one of two treatment arms: (i) a cohort receiving once-daily administration of compound (VI) (200 mg per day, administered in the form of a choline salt) with concurrent onset of add-back therapy administration for 10 weeks (“Concurrent-ABT”), or (ii) a cohort receiving pre-treatment with compound (VI) (200 mg per day, administered in the form of a choline salt) for 4 weeks followed by combined daily administration of compound (VI) and add-back therapy (“Delayed-ABT”). The add-back therapy used in these experiments contained 1.0 mg of E2 and 0.5 mg of norethindrone acetate, and was administered to subjects once daily.
# as §1
# [4] = Days 1-14, treatment A (Concurrent-ABT), N=16
# [5] = Days 1-14, treatment B (Delayed-ABT), N=16
# [6] = Days 15-28, Overall (A+B), N=32
# [7] = Days 15-28, treatment A (Concurrent-ABT), N=16
# [8] = Days 15-28, treatment B (Delayed-ABT), N=16
# [9] = Days 29-42, Overall (A+B), N=29
# [10] = Days 29-42, treatment A (Concurrent-ABT), N=14
# [11] = Days 29-42, treatment B (Delayed-ABT), N=15
# [12] = Days 43-56, Overall (A+B), N=29
# [13] = Days 43-56, treatment A (Concurrent-ABT), N=14
# [14] = Days 43-56, treatment B (Delayed-ABT), N=15
# [15] = Days 57-70, Overall (A+B), N=29
# [16] = Days 57-70, treatment A (Concurrent-ABT), N=14
# [17] = Days 57-70, treatment B (Delayed-ABT), N=15
# [18] = events of all reported adverse events, both cohorts
smiles,measurement,setting,value
"COc1cc(F)c(-n2c(=O)[nH]c3csc(C(=O)O)c3c2=O)cc1OCc1c(OC)ccc(F)c1F [Compound (VI), 3-[2-fluoro-5-(2,3-difluoro-6-methoxybenzyloxy)4-methoxyphenyl]-2,4-dioxo-1,2,3,4-tetrahydrothieno [3,4d]pyrimidine-5-carboxylic acid]",circulating progesterone,[1],sustained reduction in circulating progesterone
same,Ki,[2],27.4 nM
same,"hot flushes, cohort of occurrence",[3]; Concurrent-ABT versus Delayed-ABT,exclusively occurred in the “Delayed-ABT” group
same,"Hot Flush, subjects (%), Plasma Estradiol Level 20-50 pg/mL","[3]; Days 1-14, Overall (A+B), N=32",(0.0%)
same,"Hot Flush, subjects (%), Plasma Estradiol Level <20 pg/mL","[3]; Days 1-14, Overall (A+B), N=32",(6.3%)
same,"Hot Flush, subjects (%), Plasma Estradiol Level >50 pg/mL","[3]; Days 1-14, Overall (A+B), N=32",(0.0%)
same,"Hot Flush, subjects (n), Plasma Estradiol Level 20-50 pg/mL","[3]; Days 1-14, Overall (A+B), N=32",0
same,"Hot Flush, subjects (n), Plasma Estradiol Level <20 pg/mL","[3]; Days 1-14, Overall (A+B), N=32",2
same,"Hot Flush, subjects (n), Plasma Estradiol Level >50 pg/mL","[3]; Days 1-14, Overall (A+B), N=32",0
same,"Hot Flush, subjects (%), Plasma Estradiol Level 20-50 pg/mL",[3]; [4],(0.0%)
same,"Hot Flush, subjects (%), Plasma Estradiol Level <20 pg/mL",[3]; [4],(0.0%)
same,"Hot Flush, subjects (%), Plasma Estradiol Level >50 pg/mL",[3]; [4],(0.0%)
same,"Hot Flush, subjects (n), Plasma Estradiol Level 20-50 pg/mL",[3]; [4],0
same,"Hot Flush, subjects (n), Plasma Estradiol Level <20 pg/mL",[3]; [4],0
same,"Hot Flush, subjects (n), Plasma Estradiol Level >50 pg/mL",[3]; [4],0
same,"Hot Flush, subjects (%), Plasma Estradiol Level 20-50 pg/mL",[3]; [5],(0.0%)
same,"Hot Flush, subjects (%), Plasma Estradiol Level <20 pg/mL",[3]; [5],(12.5%)
same,"Hot Flush, subjects (%), Plasma Estradiol Level >50 pg/mL",[3]; [5],(0.0%)
same,"Hot Flush, subjects (n), Plasma Estradiol Level 20-50 pg/mL",[3]; [5],0
same,"Hot Flush, subjects (n), Plasma Estradiol Level <20 pg/mL",[3]; [5],2
same,"Hot Flush, subjects (n), Plasma Estradiol Level >50 pg/mL",[3]; [5],0
same,"Hot Flush, subjects (%), Plasma Estradiol Level 20-50 pg/mL",[3]; [6],(0.0%)
same,"Hot Flush, subjects (%), Plasma Estradiol Level <20 pg/mL",[3]; [6],(12.5%)
same,"Hot Flush, subjects (%), Plasma Estradiol Level >50 pg/mL",[3]; [6],(0.0%)
same,"Hot Flush, subjects (n), Plasma Estradiol Level 20-50 pg/mL",[3]; [6],0
same,"Hot Flush, subjects (n), Plasma Estradiol Level <20 pg/mL",[3]; [6],4
same,"Hot Flush, subjects (n), Plasma Estradiol Level >50 pg/mL",[3]; [6],0
same,"Hot Flush, subjects (%), Plasma Estradiol Level 20-50 pg/mL",[3]; [7],(0.0%)
same,"Hot Flush, subjects (%), Plasma Estradiol Level <20 pg/mL",[3]; [7],(0.0%)
same,"Hot Flush, subjects (%), Plasma Estradiol Level >50 pg/mL",[3]; [7],(0.0%)
same,"Hot Flush, subjects (n), Plasma Estradiol Level 20-50 pg/mL",[3]; [7],0
same,"Hot Flush, subjects (n), Plasma Estradiol Level <20 pg/mL",[3]; [7],0
same,"Hot Flush, subjects (n), Plasma Estradiol Level >50 pg/mL",[3]; [7],0
same,"Hot Flush, subjects (%), Plasma Estradiol Level 20-50 pg/mL",[3]; [8],(0.0%)
same,"Hot Flush, subjects (%), Plasma Estradiol Level <20 pg/mL",[3]; [8],(25.0%)
same,"Hot Flush, subjects (%), Plasma Estradiol Level >50 pg/mL",[3]; [8],(0.0%)
same,"Hot Flush, subjects (n), Plasma Estradiol Level 20-50 pg/mL",[3]; [8],0
same,"Hot Flush, subjects (n), Plasma Estradiol Level <20 pg/mL",[3]; [8],4
same,"Hot Flush, subjects (n), Plasma Estradiol Level >50 pg/mL",[3]; [8],0
same,"Hot Flush, subjects (%), Plasma Estradiol Level 20-50 pg/mL",[3]; [9],(10.3%)
same,"Hot Flush, subjects (%), Plasma Estradiol Level <20 pg/mL",[3]; [9],(6.9%)
same,"Hot Flush, subjects (%), Plasma Estradiol Level >50 pg/mL",[3]; [9],(0.0%)
same,"Hot Flush, subjects (n), Plasma Estradiol Level 20-50 pg/mL",[3]; [9],3
same,"Hot Flush, subjects (n), Plasma Estradiol Level <20 pg/mL",[3]; [9],2
same,"Hot Flush, subjects (n), Plasma Estradiol Level >50 pg/mL",[3]; [9],0
same,"Hot Flush, subjects (%), Plasma Estradiol Level 20-50 pg/mL",[3]; [10],(0.0%)
same,"Hot Flush, subjects (%), Plasma Estradiol Level <20 pg/mL",[3]; [10],(0.0%)
same,"Hot Flush, subjects (%), Plasma Estradiol Level >50 pg/mL",[3]; [10],(0.0%)
same,"Hot Flush, subjects (n), Plasma Estradiol Level 20-50 pg/mL",[3]; [10],0
same,"Hot Flush, subjects (n), Plasma Estradiol Level <20 pg/mL",[3]; [10],0
same,"Hot Flush, subjects (n), Plasma Estradiol Level >50 pg/mL",[3]; [10],0
same,"Hot Flush, subjects (%), Plasma Estradiol Level 20-50 pg/mL",[3]; [11],(20.0%)
same,"Hot Flush, subjects (%), Plasma Estradiol Level <20 pg/mL",[3]; [11],(13.3%)
same,"Hot Flush, subjects (%), Plasma Estradiol Level >50 pg/mL",[3]; [11],(0.0%)
same,"Hot Flush, subjects (n), Plasma Estradiol Level 20-50 pg/mL",[3]; [11],3
same,"Hot Flush, subjects (n), Plasma Estradiol Level <20 pg/mL",[3]; [11],2
same,"Hot Flush, subjects (n), Plasma Estradiol Level >50 pg/mL",[3]; [11],0
same,"Hot Flush, subjects (%), Plasma Estradiol Level 20-50 pg/mL",[3]; [12],(0.0%)
same,"Hot Flush, subjects (%), Plasma Estradiol Level <20 pg/mL",[3]; [12],(3.4%)
same,"Hot Flush, subjects (%), Plasma Estradiol Level >50 pg/mL",[3]; [12],(0.0%)
same,"Hot Flush, subjects (n), Plasma Estradiol Level 20-50 pg/mL",[3]; [12],0
same,"Hot Flush, subjects (n), Plasma Estradiol Level <20 pg/mL",[3]; [12],1
same,"Hot Flush, subjects (n), Plasma Estradiol Level >50 pg/mL",[3]; [12],0
same,"Hot Flush, subjects (%), Plasma Estradiol Level 20-50 pg/mL",[3]; [13],(0.0%)
same,"Hot Flush, subjects (%), Plasma Estradiol Level <20 pg/mL",[3]; [13],(0.0%)
same,"Hot Flush, subjects (%), Plasma Estradiol Level >50 pg/mL",[3]; [13],(0.0%)
same,"Hot Flush, subjects (n), Plasma Estradiol Level 20-50 pg/mL",[3]; [13],0
same,"Hot Flush, subjects (n), Plasma Estradiol Level <20 pg/mL",[3]; [13],0
same,"Hot Flush, subjects (n), Plasma Estradiol Level >50 pg/mL",[3]; [13],0
same,"Hot Flush, subjects (%), Plasma Estradiol Level 20-50 pg/mL",[3]; [14],(0.0%)
same,"Hot Flush, subjects (%), Plasma Estradiol Level <20 pg/mL",[3]; [14],(6.7%)
same,"Hot Flush, subjects (%), Plasma Estradiol Level >50 pg/mL",[3]; [14],(0.0%)
same,"Hot Flush, subjects (n), Plasma Estradiol Level 20-50 pg/mL",[3]; [14],0
same,"Hot Flush, subjects (n), Plasma Estradiol Level <20 pg/mL",[3]; [14],1
same,"Hot Flush, subjects (n), Plasma Estradiol Level >50 pg/mL",[3]; [14],0
same,"Hot Flush, subjects (%), Plasma Estradiol Level 20-50 pg/mL",[3]; [15],(0.0%)
same,"Hot Flush, subjects (%), Plasma Estradiol Level <20 pg/mL",[3]; [15],(0.0%)
same,"Hot Flush, subjects (%), Plasma Estradiol Level >50 pg/mL",[3]; [15],(0.0%)
same,"Hot Flush, subjects (n), Plasma Estradiol Level 20-50 pg/mL",[3]; [15],0
same,"Hot Flush, subjects (n), Plasma Estradiol Level <20 pg/mL",[3]; [15],0
same,"Hot Flush, subjects (n), Plasma Estradiol Level >50 pg/mL",[3]; [15],0
same,"Hot Flush, subjects (%), Plasma Estradiol Level 20-50 pg/mL",[3]; [16],(0.0%)
same,"Hot Flush, subjects (%), Plasma Estradiol Level <20 pg/mL",[3]; [16],(0.0%)
same,"Hot Flush, subjects (%), Plasma Estradiol Level >50 pg/mL",[3]; [16],(0.0%)
same,"Hot Flush, subjects (n), Plasma Estradiol Level 20-50 pg/mL",[3]; [16],0
same,"Hot Flush, subjects (n), Plasma Estradiol Level <20 pg/mL",[3]; [16],0
same,"Hot Flush, subjects (n), Plasma Estradiol Level >50 pg/mL",[3]; [16],0
same,"Hot Flush, subjects (%), Plasma Estradiol Level 20-50 pg/mL",[3]; [17],(0.0%)
same,"Hot Flush, subjects (%), Plasma Estradiol Level <20 pg/mL",[3]; [17],(0.0%)
same,"Hot Flush, subjects (%), Plasma Estradiol Level >50 pg/mL",[3]; [17],(0.0%)
same,"Hot Flush, subjects (n), Plasma Estradiol Level 20-50 pg/mL",[3]; [17],0
same,"Hot Flush, subjects (n), Plasma Estradiol Level <20 pg/mL",[3]; [17],0
same,"Hot Flush, subjects (n), Plasma Estradiol Level >50 pg/mL",[3]; [17],0
same,tolerability,[3]; both cohorts,well-tolerated
same,adverse events: headache,[3]; [18],38/166
same,adverse events: hot flushes,[3]; [18],19/166
